According to patent US12215085B2 (priority 2019, dated 2025):
Counter-ions that a name gives are not always drawn. Marks after values point to notes of the source that are not given here.

Key:
[1] = system: rats with beta-amyloid induced senile dementia; test: Water maze test, beta-amyloid induced senile dementia rats; assay type: in vivo, rat; settings: for adopted strategy for reaching the platform (the peripheral type and the random type %) / orientation angle for reaching the platform / speed for reaching the platform / swimming path length for reaching the platform / time for reaching the platform: 1.75 mg/kg intragastric; for orientation angle for reaching the platform / speed for reaching the platform / swimming path length for reaching the platform / time for reaching the platform: x ± s
[2] = system: rats with beta-amyloid induced senile dementia; test: Step-down test, beta-amyloid induced senile dementia rats; assay type: in vivo, rat; settings: donepezil hydrochloride 1.75 mg/kg, P<0.05
[3] = system: rats with common carotid artery occlusion-induced vascular dementia; test: Water maze test, common carotid artery occlusion-induced vascular dementia rats; assay type: in vivo, rat; settings: for orientation angle for reaching the platform / speed for reaching the platform / swimming path length for reaching the platform / time for reaching the platform: x ± s
Text: (§1) A rat blood vessel dementia model was made according to the references [ZHAO Xian-lin, FANG Xiu-bin, LI Dong-pei. Establishment of Vascular Dementia Model in Rats, J Chin Med Univ, 2002, 31 (3): 166-168; WANG Yong-yan, Zhang Bo-li, Editor-in-chief. Modern Chinese Medicine Clinic and Research on Vascular Dementia, People's Medical Publishing House, October 2003, First Version 214]: Chloral hydrate 0.4 g/kg was intraperitoneally injected for anesthetizing rats, and bilateral common carotid arteries were isolated and ligated. The animals were fed for 16 weeks, divided into groups on the last 7 days, and administered. The normal control group and the model group were administrated through the intragastric route with distilled water by 0.5 ml/100 g, the positive control group was administrated through the intragastric route with donepezil hydrochloride by 1.75 mg/kg (equivalent to 3.85 times the clinical daily dosage of 5 mg/70 kg), the low, medium and high-dose groups of Crystal Form A of octahydroaminoacridine succinate were administrated through the intragastric route with Crystal Form A of octahydroaminoacridine succinate by 0.7, 1.4 and 2.8 mg/kg (equivalent to 0.96, 1.92 and 3.85 times the clinical daily dosage of 8 mg/70 kg). The water maze test and the step-down test were carried out after continuous administration for 7 days, and the administration was continued during the test period. The water maze test was continuously performed for 7 days, in the first 6 days, in four different water entry points of quadrants 1, 2, 3 and 4, the time, the swimming path length, the orientation angle and the average speed of the rat reaching the platform were measured, meanwhile, the strategy for reaching the platform adopted by rats was observed, on the 7th day, the platform was removed, the number of rats crossing the platform in 2 minutes, the residence time in the platform area, the residence time in the platform quadrants, the percentage of the swimming path length in the platform area quadrants to the total swimming path length, the average speed and the orientation angle were measured. After the water maze test was finished, the step-down test was performed, and the number of electric shocks (or called as the error number) received by each rat within 5 minutes was recorded as the learning performance. The test was performed again after 24 hours, namely, the memory retention test, and the latent period for stepping-down the platform for the first time and the error number in five minutes were recorded. After the step-down test was finished, the brain was taken quickly for pathological examination, and the pathological changes of the hippocampus and the cortex were observed.

[4] = system: rats with common carotid artery occlusion-induced vascular dementia; test: Step-down test, common carotid artery occlusion-induced vascular dementia rats; assay type: in vivo, rat
Text: as §1

[5] = target: cholinesterase D (Homo sapiens, UniProt P06276); assay type: biochemical; settings: in vitro tests; multiple of rivastigmine
cholinesterase D, sequence (P06276 29-602): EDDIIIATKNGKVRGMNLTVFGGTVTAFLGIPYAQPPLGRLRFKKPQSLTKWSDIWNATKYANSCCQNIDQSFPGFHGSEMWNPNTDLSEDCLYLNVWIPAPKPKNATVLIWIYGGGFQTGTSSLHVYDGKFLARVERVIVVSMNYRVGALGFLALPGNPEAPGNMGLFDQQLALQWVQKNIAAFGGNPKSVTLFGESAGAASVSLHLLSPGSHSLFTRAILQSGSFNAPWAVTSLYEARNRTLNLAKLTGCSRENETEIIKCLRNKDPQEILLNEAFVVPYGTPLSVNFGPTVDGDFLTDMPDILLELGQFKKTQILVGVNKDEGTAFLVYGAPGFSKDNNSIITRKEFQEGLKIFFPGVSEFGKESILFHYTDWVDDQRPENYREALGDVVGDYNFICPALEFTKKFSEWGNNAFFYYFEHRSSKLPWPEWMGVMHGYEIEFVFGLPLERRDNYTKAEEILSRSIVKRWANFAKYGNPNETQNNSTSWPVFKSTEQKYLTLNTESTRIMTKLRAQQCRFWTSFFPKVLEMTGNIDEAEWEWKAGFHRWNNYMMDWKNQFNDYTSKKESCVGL

[6] = system: cholinesterase B (Homo sapiens); test: In vitro inhibition of cholinesterase B; assay type: biochemical; settings: in vitro tests; multiple of rivastigmine
cholinesterase B (Homo sapiens), sequence (P22303 32-614): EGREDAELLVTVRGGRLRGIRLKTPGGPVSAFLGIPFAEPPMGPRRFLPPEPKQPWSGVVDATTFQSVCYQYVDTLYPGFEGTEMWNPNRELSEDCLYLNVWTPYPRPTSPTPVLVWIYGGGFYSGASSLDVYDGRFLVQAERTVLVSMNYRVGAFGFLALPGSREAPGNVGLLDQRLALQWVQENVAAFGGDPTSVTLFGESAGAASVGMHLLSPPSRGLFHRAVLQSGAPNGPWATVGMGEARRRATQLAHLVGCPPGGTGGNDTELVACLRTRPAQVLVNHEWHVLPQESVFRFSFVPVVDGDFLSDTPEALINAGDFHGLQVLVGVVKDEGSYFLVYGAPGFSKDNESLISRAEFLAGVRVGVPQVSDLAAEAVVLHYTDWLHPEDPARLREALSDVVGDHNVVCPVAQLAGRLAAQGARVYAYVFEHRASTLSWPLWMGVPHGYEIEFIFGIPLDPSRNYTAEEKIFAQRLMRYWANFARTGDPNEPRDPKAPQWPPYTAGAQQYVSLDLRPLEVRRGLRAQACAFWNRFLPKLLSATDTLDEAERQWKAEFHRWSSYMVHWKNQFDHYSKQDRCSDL

[7] = donepezil hydrochloride 1.75 mg/kg, Day 1 to Day 6
[8] = donepezil hydrochloride 1.75 mg/kg, Day 2, P<0.05
[9] = donepezil hydrochloride 1.75 mg/kg, Day 7
[10] = donepezil hydrochloride 1.75 mg/kg, Day 7, P<0.05
[11] = donepezil hydrochloride 1.75 mg/kg, P<0.05 or P<0.01
[12] = step-down method, 1.75 mg/kg intragastric, x ± s

## COc1cc2c(cc1OC)C(=O)C(CC1CCN(Cc3ccccc3)CC1)C2 (centres unmarked) [Positive control group, donepezil hydrochloride]
[1]; Day 1
  adopted strategy for reaching the platform (the peripheral type and the random type %): 97.50%
  orientation angle for reaching the platform: 75.41 ± 22.31 °
  speed for reaching the platform: 16.03 ± 4.22 cm/s
  swimming path length for reaching the platform: 1029.43 ± 453.12 cm
  time for reaching the platform: 72.43 ± 30.97 s
[1]; Day 2
  adopted strategy for reaching the platform (the peripheral type and the random type %): 75.00%
  orientation angle for reaching the platform: 50.14 ± 23.02 °
  speed for reaching the platform: 20.78 ± 5.83 cm/s
  swimming path length for reaching the platform: 762.34 ± 562.06 cm
  time for reaching the platform: 38.98 ± 33.812 s
[1]; Day 3
  adopted strategy for reaching the platform (the peripheral type and the random type %): 77.50%
  orientation angle for reaching the platform: 52.85 ± 27.04 °
  speed for reaching the platform: 19.15 ± 4.64 cm/s
  swimming path length for reaching the platform: 572.83 ± 576.82 cm
  time for reaching the platform: 34.41 ± 37.35 s
[1]; Day 4
  adopted strategy for reaching the platform (the peripheral type and the random type %): 62.50** %
  orientation angle for reaching the platform: 46.37 ± 17.86 °
  speed for reaching the platform: 22.07 ± 8.05 cm/s
  swimming path length for reaching the platform: 312.04 ± 316.86 cm
  time for reaching the platform: 29.32 ± 39.89 s
[1]; Day 5
  adopted strategy for reaching the platform (the peripheral type and the random type %): 67.50** %
  orientation angle for reaching the platform: 50.54 ± 24.98 °
  speed for reaching the platform: 19.67 ± 3.94 cm/s
  swimming path length for reaching the platform: 495.72 ± 380.99 cm
  time for reaching the platform: 29.16 ± 24.95 s
[1]; Day 6
  adopted strategy for reaching the platform (the peripheral type and the random type %): 62.50* %
  orientation angle for reaching the platform: 44.21 ± 34.00 °
  speed for reaching the platform: 18.28 ± 5.12 cm/s
  swimming path length for reaching the platform: 413.33 ± 483.35 cm
  time for reaching the platform: 28.99 ± 35.61 s
[1]; [7]
  swimming speed vs model group: not obviously changed
[1]; donepezil hydrochloride 1.75 mg/kg, Day 1 to Day 6, no statistical significance
  latent period for reaching the platform vs model group: shortened trend
[1]; [8]
  orientation angle vs model group: obviously decreased
[1]; donepezil hydrochloride 1.75 mg/kg, Day 4, P<0.05
  swimming path length for reaching the platform vs model group: obviously shortened
[1]; [9]
  average speed and orientation angle vs model group: not obviously changed
[1]; [10]
  number of crossing the platform vs model group: obviously increased
  percentage of the swimming path length in the platform area quadrants to the total swimming path length vs model group: obviously increased
  residence time in the platform area vs model group: obviously increased
  residence time in the platform quadrants within 2 minutes vs model group: obviously increased
[1]; [11]
  conversion from the peripheral type and the random type to the tendency type and the linear type in the strategy for looking for the platform: obviously increased
[2]; Day 1 and Day 2
  step-down error number vs model group: obviously reduced
[2]; Day 2
  error latency vs model group: obviously prolonged
[3]; Day 1, 1.75 mg/kg intragastric
  adopted strategy for reaching the platform (the peripheral type and the random type %): 65.00* %
  orientation angle for reaching the platform: 58.85 ± 15.35 °
  speed for reaching the platform: 21.15 ± 5.56 cm/s
  swimming path length for reaching the platform: 1105.00 ± 578.29 cm
  time for reaching the platform: 58.42 ± 23.42 s
[3]; Day 2, 1.75 mg/kg intragastric
  adopted strategy for reaching the platform (the peripheral type and the random type %): 62.50%
  orientation angle for reaching the platform: 61.54 ± 17.41 °
  speed for reaching the platform: 22.68 ± 5.82 cm/s
  swimming path length for reaching the platform: 579.08 ± 316.12 cm
  time for reaching the platform: 33.96 ± 17.06 s
[3]; Day 3, 1.75 mg/kg intragastric
  adopted strategy for reaching the platform (the peripheral type and the random type %): 62.50* %
  orientation angle for reaching the platform: 48.94 ± 13.42 °
  speed for reaching the platform: 21.19 ± 3.15 cm/s
  swimming path length for reaching the platform: 606.25 ± 279.18 cm
  time for reaching the platform: 30.17 ± 14.50 s
[3]; Day 4, 1.75 mg/kg intragastric
  adopted strategy for reaching the platform (the peripheral type and the random type %): 67.50%
  orientation angle for reaching the platform: 58.94 ± 22.56 °
  speed for reaching the platform: 25.79 ± 9.79 cm/s
  swimming path length for reaching the platform: 615.78 ± 385.17 cm
  time for reaching the platform: 23.92 ± 12.45 s
[3]; Day 5, 1.75 mg/kg intragastric
  adopted strategy for reaching the platform (the peripheral type and the random type %): 50.00%
  orientation angle for reaching the platform: 49.64 ± 17.65 °
  speed for reaching the platform: 24.88 ± 8.76 cm/s
  swimming path length for reaching the platform: 586.80 ± 405.09 cm
  time for reaching the platform: 21.94 ± 11.16 s
[3]; Day 6, 1.75 mg/kg intragastric
  adopted strategy for reaching the platform (the peripheral type and the random type %): 47.50** %
  orientation angle for reaching the platform: 53.54 ± 19.68 °
  speed for reaching the platform: 21.02 ± 6.67 cm/s
  swimming path length for reaching the platform: 348.06 ± 202.65 cm
  time for reaching the platform: 17.87 ± 12.66 s
[3]; Day 7, 1.75 mg/kg intragastric
  Average speed: 24.60 ± 10.18 cm/s
  Number of crossing the platform: 9.40 ± 5.16
  Orientation angle: 9.40 ± 5.17 °
  Swimming path length in the platform area/total swimming path length × 100%: 33.02 ± 9.98%
  Time in the platform area: 3.06 ± 2.24 s
  Time in the platform quadrants: 42.21 ± 12.71 s
[3]; [7]
  orientation angle and swimming speed vs model group: not obviously changed
[3]; donepezil hydrochloride 1.75 mg/kg, Day 2, Day 3 and Day 6, P<0.05
  swimming path length for reaching the platform vs model group: obviously shortened
[3]; donepezil hydrochloride 1.75 mg/kg, Day 5 and Day 6, P<0.05 or P<0.01
  latent period for reaching the platform vs model group: obviously shortened
[3]; [9]
  average speed and orientation angle vs model group: not obviously changed
[3]; [10]
  residence time in the platform quadrants within 2 minutes vs model group: obviously increased
[3]; donepezil hydrochloride 1.75 mg/kg, Day 7, no statistical significance
  number of crossing the platform, residence time in the platform area, and percentage of the swimming path length in the platform area quadrants to the total swimming path length vs model group: increased trend
[3]; [11]
  conversion from the peripheral type or the random type to the tendency type or the linear type in the strategy for looking for the platform: obviously increased
[4]; donepezil hydrochloride 1.75 mg/kg, Day 1 and Day 2, P<0.05
  step-down error number vs model group: obviously reduced
[4]; [8]
  error latency vs model group: obviously prolonged
[4]; [12]
  Day 1, Error number: 5.40 ± 3.06
  Day 2, Error latency: 244.10 ± 77.83 s
  Day 2, Error number: 1.10 ± 1.28

## Nc1c2c(nc3c1CCCC3)CCCC2.O=C(O)CCC(=O)O [octahydroaminoacridine succinate, 9-amino-1,2,3,4,5,6,7,8-octahydroacridine succinate]
[5]
  inhibiting ability to cholinesterase D relative to rivastigmine: 2000 times
[6]
  inhibiting ability to cholinesterase B relative to rivastigmine: 500 times
